Measured values from paper PMC4145847 (ChemMedChem, 2014).
Where two headings read alike, the source gives them in different places.

Legend:
[1] = test system: DU-145 human prostate cancer cells; assay: Antiproliferative assay; type: cell-based; conditions: for GI50: read-out: GI50 DU-145; for Fold less active than 20b: DU-145 and MDA MB-231
[2] = test system: MDA MB-231 human breast cancer cells; assay: Antiproliferative assay; type: cell-based; conditions: for GI50: read-out: GI50 MDA MB-231
[3] = test system: Bovine brain tubulin; assay: Inhibition of tubulin assembly; type: biochemical; conditions: read-out: Tubulin assembly IC50; 10 μM tubulin; mean ±SD of at least two determinations
[4] = test system: Bovine brain tubulin; assay: Inhibition of [3H]colchicine binding to tubulin; conditions: 1.0 μM tubulin, 5.0 μM [3H]colchicine, mean ±SD
[5] = test system: Bovine brain tubulin; conditions: 1.0 μM tubulin, 5.0 μM [3H]colchicine, mean ±SD; cited from earlier work
[6] = test system: Lung HOP-62; conditions: read-out: GI50 Lung HOP-62; NCI-60 panel; cited from earlier work
[7] = test system: Colon HCT-116; conditions: read-out: GI50 Colon HCT-116; NCI-60 panel; cited from earlier work
[8] = test system: CNS SF-539; conditions: read-out: GI50 CNS SF-539; NCI-60 panel; cited from earlier work
[9] = test system: Melanoma UACC-62; conditions: read-out: GI50 Melanoma UACC-62; NCI-60 panel; cited from earlier work
[10] = test system: Ovarian OVCAR-3; conditions: read-out: GI50 Ovarian OVCAR-3; NCI-60 panel; cited from earlier work
[11] = test system: Renal SN12-C; conditions: read-out: GI50 Renal SN12-C; NCI-60 panel; cited from earlier work
[12] = test system: NCI 60-cell line panel; conditions: mean concentration that caused 50% growth inhibition in all 60 cell lines; cited from earlier work
[13] = test system: Lung HOP-62; assay: NCI-60 cell line assay, Lung HOP-62; type: cell-based; conditions: Homo sapiens, HOP-62, read-out: GI50 Lung HOP-62
[14] = test system: Colon HCT-116; assay: NCI-60 cell line assay, Colon HCT-116; type: cell-based; conditions: Homo sapiens, HCT-116, read-out: GI50 Colon HCT-116
[15] = test system: Melanoma UACC-62; assay: NCI-60 cell line assay, Melanoma UACC-62; type: cell-based; conditions: Homo sapiens, UACC-62, read-out: GI50 Melanoma UACC-62
[16] = test system: Ovarian OVCAR-3; assay: NCI-60 cell line assay, Ovarian OVCAR-3; type: cell-based; conditions: Homo sapiens, OVCAR-3, read-out: GI50 Ovarian OVCAR-3
[17] = test system: Renal SN12-C; assay: NCI-60 cell line assay, Renal SN12-C; type: cell-based; conditions: Homo sapiens, SN12C, read-out: GI50 Renal SN12-C
[18] = test system: NCI 60-cell line panel; assay: NCI-60 cell line assay, mean over all 60 cell lines; type: cell-based; conditions: for MGM: mean concentration that caused 50% growth inhibition in all 60 cell lines
[19] = test system: various cancer lines in sealed polyvinylidine fluoride fibres implanted i.p. or s.c.; assay: NCI hollow fibre assay; conditions: mice; for Hollow fibre assay score (maximum 96): total score
[20] = mean of three determinations, 96 h

Compound: COc1cc2c(cc1O)CC(C)N(Cc1cc(Br)c(OC)c(OC)c1)C2 (racemic) [Compound 11j, (±)-2-(3-Bromo-4,5-dimethoxybenzyl)-6-hydroxy-7-methoxy-3-methyl-1,2,3,4-tetrahydroisoquinoline]
- GI50 [1, 20]: 400 nM
- GI50 [2, 20]: 300 nM

Compound: COc1cc2c(cc1OS(N)(=O)=O)CC(C)N(Cc1cc(Br)c(OC)c(OC)c1)C2 (racemic) [Compound 12j, (±)-2-(3-Bromo-4,5-dimethoxybenzyl)-7-methoxy-3-methyl-6-sulfamoyloxy-1,2,3,4-tetrahydroisoquinoline]
- GI50 [1, 20]: 50 nM
- GI50 [2, 20]: 40 nM
- IC50 [3]: 2400 ± 200 nM
- Colchicine binding Inhibition at 5 μM inhibitor [4]: 50 ±4%

Compound: COc1ccc(/C=C\c2cc(OC)c(OC)c(OC)c2)cc1O [CA-4, combretastatin A-4]
- Colchicine binding Inhibition at 5 μM inhibitor [5]: 98 ±0.7%

Compound: COc1cc2c(cc1OS(N)(=O)=O)CC[C@@H]1[C@@H]2CC[C@]2(C)[C@@H](OS(N)(=O)=O)CC[C@@H]12 [Compound 1a, 2-methoxyestradiol-3,17-O,O-bis-sulfamate]
- GI50 [6]: 51 nM
- GI50 [7]: 45 nM
- GI50 [8]: 36 nM
- GI50 [9]: < 10 nM
- GI50 [10]: < 10 nM
- GI50 [11]: 126 nM
- MGM [12]: 0.087 µM

Compound: COc1cc2c(cc1O)CCN(Cc1cc(Cl)c(OC)c(OC)c1)C2 [Compound 11e, 2-(3-Chloro-4,5-dimethoxybenzyl)-6-hydroxy-7-methoxy-1,2,3,4-tetrahydroisoquinoline]
- GI50 [13]: 869 nM
- GI50 [14]: 474 nM
- GI50 [15]: 350 nM
- GI50 [16]: 187 nM
- GI50 [17]: 910 nM
- MGM [18]: 0.501 µM

Compound: COc1cc2c(cc1O)CCN(Cc1cc(Br)c(OC)c(OC)c1)C2 [Compound 11f, 2-(3-Bromo-4,5-dimethoxybenzyl)-6-hydroxy-7-methoxy-1,2,3,4-tetrahydroisoquinoline]
- GI50 [13]: 353 nM
- GI50 [14]: 143 nM
- GI50 [15]: 305 nM
- GI50 [16]: 74 nM
- GI50 [17]: 768 nM
- MGM [18]: 0.38 µM
- Hollow fibre assay score (maximum 96) ([19]; dosed i.p. at 150 mg/kg): 2

Compound: COc1cc2c(cc1OS(N)(=O)=O)CCN(Cc1cc(Cl)c(OC)c(OC)c1)C2 [Compound 12e, 2-(3-Chloro-4,5-dimethoxybenzyl)-7-methoxy-6-sulfamoyloxy-1,2,3,4-tetrahydroisoquinoline]
- Increase in antiproliferative activity relative to 4a ([1]; DU-145): 8- to 10 fold
- GI50 [13]: 56 nM
- GI50 [14]: 39 nM
- GI50 [15]: 25 nM
- GI50 [16]: 20 nM
- GI50 [17]: 66 nM
- MGM values ([18]; NCI 60-cell line assay, stated in abstract): ~40 nM
- MGM [18]: 0.039 µM
- IC50 [3]: 5600 ± 700 nM
- Colchicine binding Inhibition at 5 μM inhibitor [4]: 32 ±3%

Compound: COc1cc2c(cc1OS(N)(=O)=O)CCN(Cc1cc(Br)c(OC)c(OC)c1)C2 [Compound 12f, 2-(3-Bromo-4,5-dimethoxybenzyl)-7-methoxy-6-sulfamoyloxy-1,2,3,4-tetrahydroisoquinoline]
- GI50 [13]: 80 nM
- GI50 [14]: 38 nM
- GI50 [15]: 28 nM
- GI50 [16]: 18 nM
- GI50 [17]: 55 nM
- MGM [18]: 0.044 µM
- IC50 [3]: 2400 ± 400 nM
- Colchicine binding Inhibition at 5 μM inhibitor [4]: 45 ±0.6%
- Hollow fibre assay score for i.p. fibres ([19]; dosed i.p. at 75 mg/kg): 16
- Hollow fibre assay score for s.c. fibres ([19]; dosed i.p. at 75 mg/kg): 18
- Hollow fibre assay score (maximum 96) ([19]; dosed i.p. at 75 mg/kg): 34

Compound: CCc1cc(CN2CCc3cc(OS(N)(=O)=O)c(OC)cc3C2)cc(CC)c1CC [Compound 12i, 7-Methoxy-6-sulfamoyloxy-2-(3,4,5-triethylbenzyl)-1,2,3,4-tetra-hydroisoquinoline]
- GI50 [13]: 2450 nM
- GI50 [14]: 1050 nM
- GI50 [15]: 592 nM
- GI50 [16]: 209 nM
- GI50 [17]: 5290 nM
- MGM [18]: 1.17 µM

Compound: CCc1cc2c(cc1O)CCN(Cc1cc(Br)c(OC)c(OC)c1)C2 [Compound 14, 2-(3-Bromo-4,5-dimethoxybenzyl)-7-ethyl-6-hydroxy-1,2,3,4-tetrahydroisoquinoline]
- GI50 ([1]; Homo sapiens, DU-145, 96 h): 1200 nM
- GI50 ([2]; Homo sapiens, MDA-MB-231, 96 h): 400 nM

Compound: CCc1cc2c(cc1OS(N)(=O)=O)CCN(Cc1cc(Br)c(OC)c(OC)c1)C2 [Compound 15, 2-(3-Bromo-4,5-dimethoxybenzyl)-7-ethyl-6-sulfamoyloxy-1,2,3,4-tetrahydroisoquinoline]
- GI50 ([1]; Homo sapiens, DU-145, 96 h): 20 nM
- GI50 ([2]; Homo sapiens, MDA-MB-231, 96 h): 30 nM
- IC50 [3]: 1800 ± 40 nM
- Colchicine binding Inhibition at 5 μM inhibitor [4]: 78±2%

Compound: COc1cc2c(cc1OC)CN(Cc1cc(OC)c(OC)c(OC)c1)CC2 [Compound 17a, 6,7-Dimethoxy-2-(3,4,5-trimethoxybenzyl)-1,2,3,4-tetrahydroisoquinoline]
- GI50 ([1]; Homo sapiens, DU-145, 96 h): > 100000 nM
- GI50 ([2]; Homo sapiens, MDA-MB-231, 96 h): 77600 nM
- Fold less active than 3a ([2]; MDA MB-231): 120 fold

Compound: COc1cc2c(cc1OC(C)=O)CCN(Cc1cc(OC)c(OC)c(OC)c1)C2 [Compound 17b, 6-Acetoxy-7-methoxy-2-(3,4,5-trimethoxybenzyl)-1,2,3,4-tetrahydroisoquinoline]
- GI50 ([1]; Homo sapiens, DU-145, 96 h): 407 nM
- GI50 ([2]; Homo sapiens, MDA-MB-231, 96 h): 340 nM

Compound: COc1cc2c(cc1OS(C)(=O)=O)CCN(Cc1cc(OC)c(OC)c(OC)c1)C2 [Compound 17c, 7-Methoxy-6-methanesulfonyloxy-2-(3,4,5-trimethoxybenzyl)-1,2,3,4-tetrahydroisoquinoline]
- GI50 ([1]; Homo sapiens, DU-145, 96 h): 220 nM
- GI50 ([2]; Homo sapiens, MDA-MB-231, 96 h): 188 nM

Compound: COc1cc(CN2CCc3cc(OCc4ccccc4)ccc3C2)cc(OC)c1OC [Compound 20a, 6-Benzyloxy-2-(3,4,5-trimethoxybenzyl)-1,2,3,4-tetrahydroisoquinoline]
- GI50 ([1]; Homo sapiens, DU-145, 96 h): > 100000 nM
- GI50 ([2]; Homo sapiens, MDA-MB-231, 96 h): > 100000 nM

Compound: COc1cc(CN2CCc3cc(O)ccc3C2)cc(OC)c1OC [Compound 20b, 6-Hydroxy-2-(3,4,5-trimethoxybenzyl)-1,2,3,4-tetrahydroisoquinoline]
- GI50 ([1]; Homo sapiens, DU-145, 96 h): 151 nM
- GI50 ([2]; Homo sapiens, MDA-MB-231, 96 h): 227 nM
- GI50 [13]: 62 nM
- GI50 [14]: 35 nM
- GI50 [15]: 49 nM
- GI50 [16]: 19 nM
- GI50 [17]: 49 nM
- MGM [18]: 0.045 µM
- IC50 [3]: 1600 ± 100 nM
- Colchicine binding Inhibition at 5 μM inhibitor [4]: 73±3%

Compound: COc1ccc2c(c1)CCN(Cc1cc(OC)c(OC)c(OC)c1)C2 [Compound 20c, 6-Methoxy-2-(3,4,5-trimethoxybenzyl)-1,2,3,4-tetrahydroisoquinoline]
- Fold less active than 20b [1]: 20- to 200 fold
- GI50 ([1]; Homo sapiens, DU-145, 96 h): 31000 nM
- GI50 ([2]; Homo sapiens, MDA-MB-231, 96 h): 4890 nM

Compound: COc1cc(CN2CCc3cc(OS(N)(=O)=O)ccc3C2)cc(OC)c1OC [Compound 20d, 6-Sulfamoyloxy-2-(3,4,5-trimethoxybenzyl)-1,2,3,4-tetrahydroisoquinoline]
- GI50 ([1]; Homo sapiens, DU-145, 96 h): > 100000 nM
- GI50 ([2]; Homo sapiens, MDA-MB-231, 96 h): > 100000 nM

Compound: COc1cc(CN2CCc3cc(O)ccc3C2)cc(Cl)c1OC [Compound 20e, 2-(3-Chloro-4,5-dimethoxybenzyl)-6-hydroxy-1,2,3,4-tetrahydroisoquinoline]
- Fold less active than 20b [1]: 100- to 600 fold
- GI50 ([1]; Homo sapiens, DU-145, 96 h): 86000 nM
- GI50 ([2]; Homo sapiens, MDA-MB-231, 96 h): 74000 nM

Compound: COc1cc(CN2CCc3cc(O)ccc3C2)cc(Br)c1OC [Compound 20f, 2-(3-Bromo-4,5-dimethoxybenzyl)-6-hydroxy-1,2,3,4-tetrahydroisoquinoline]
- GI50 ([1]; Homo sapiens, DU-145, 96 h): 35000 nM
- GI50 ([2]; Homo sapiens, MDA-MB-231, 96 h): 25000 nM

Compound: CCOc1c(OC)cc(CN2CCc3cc(O)ccc3C2)cc1OC [Compound 20g, 2-(3,5-Dimethoxy-4-ethoxybenzyl)-6-hydroxy-1,2,3,4-tetrahydroisoquinoline]
- GI50 ([1]; Homo sapiens, DU-145, 96 h): > 100000 nM
- GI50 ([2]; Homo sapiens, MDA-MB-231, 96 h): > 100000 nM

Compound: CCOc1cc(CN2CCc3cc(O)ccc3C2)cc(OCC)c1OCC [Compound 20h, 6-Hydroxy-2-(3,4,5-triethoxybenzyl)-1,2,3,4-tetrahydroisoquinoline]
- GI50 ([1]; Homo sapiens, DU-145, 96 h): > 100000 nM
- GI50 ([2]; Homo sapiens, MDA-MB-231, 96 h): > 100000 nM

Compound: COc1cc(C(=O)N2CCc3cc(O)ccc3C2)cc(OC)c1OC [Compound 20i, 6-Hydroxy-2-(3,4,5-trimethoxybenzoyl)-1,2,3,4-tetrahydroisoquinoline]
- GI50 ([1]; Homo sapiens, DU-145, 96 h): > 100000 nM
- GI50 ([2]; Homo sapiens, MDA-MB-231, 96 h): > 100000 nM

Compound: COc1cc(CCN2CCc3cc(O)ccc3C2)cc(OC)c1OC [Compound 20j, 6-Hydroxy-2-(3,4,5-trimethoxyphenethyl)-1,2,3,4-tetrahydroisoquinoline]
- GI50 ([1]; Homo sapiens, DU-145, 96 h): > 100000 nM
- GI50 ([2]; Homo sapiens, MDA-MB-231, 96 h): > 100000 nM
